How the values were obtained:
Assay type in all cases: functional
Set-up in all cases: scale not given: the % may be the effect or the level left
Spodoptera frugiperda [1] = assay: Antiinsecticidal activity against Spodoptera frugiperda assessed as reduction in growth rate at 100 ppm relative to control
Spodoptera frugiperda [2] = assay: Antiinsecticidal activity against Spodoptera frugiperda assessed as reduction in growth rate at 80 ppm relative to control
Spodoptera frugiperda [3] = assay: Antiinsecticidal activity against Spodoptera frugiperda assessed as reduction in growth rate at 360 ppm relative to control

| SMILES | Activity (Spodoptera frugiperda [1]) [%] | also measured |
| --- | --- | --- |
| CC1=CC[C@@H]2[C@]34CC[C@](O)(OC3)C(C)(C)[C@@H]4CC[C@@]2(C)[C@@]12Oc1cc(-c3cccnc3)oc(=O)c1[C@@H]2O [DECATURIN B] | 89 | – |
| CC1=CC[C@@H]2[C@]34CC[C@](O)(OC3)C(C)(C)[C@@H]4CC[C@@]2(C)[C@]12Cc1c(cc(-c3cccnc3)oc1=O)O2 [DECATURIN C] | – | Activity (Spodoptera frugiperda [2]): 28% |
| CC1=CC[C@@H]2[C@@]3(C)CCC(=O)C(C)(C)[C@@H]3CC[C@@]2(C)[C@]12Cc1c(cc(-c3cccnc3)oc1=O)O2 [DECATURIN D] | 77 | – |
| C=C(C)[C@@H]1CC[C@]2(C)[C@H](CC=C(C)[C@]23Oc2cc(-c4cccnc4)oc(=O)c2[C@@H]3O)[C@@]12CCC(=O)OC2 [OXALICINE A] | – | Activity (Spodoptera frugiperda [3]): 98% |
| C=C(C)[C@]1(O)CC[C@]2(C)[C@H](CC=C(C)[C@]23Oc2cc(-c4cccnc4)oc(=O)c2[C@@H]3O)[C@@]12CCC(=O)OC2 [OXALICINE B] | 62 | – |

— ChEMBL document CHEMBL1158693, “Antiinsectan decaturin and oxalicine analogues from Penicillium thiersii” (2005)
